ChEMBL document CHEMBL1148880, “Development of piperazine-tethered heterodimers as potent antimalarials against chloroquine-resistant P. falciparum strains. Synthesis and molecular modeling” (Bioorg Med Chem Lett, 2007)

Legend:
Type in all cases: functional, organism-based
Plasmodium falciparum [1] = test: Antiplasmodial activity against chloroquine-sensitive Plasmodium falciparum D10
Plasmodium falciparum [2] = test: Antiplasmodial activity against chloroquine-resistant Plasmodium falciparum W2
Plasmodium falciparum [3] = test: Antiplasmodial activity against chloroquine-sensitive Plasmodium falciparum 3D7
Plasmodium falciparum [4] = test: Antiplasmodial activity against chloroquine-resistant Plasmodium falciparum K1

`Clc1ccc2/c(=N/CCCN3CCN(CCCNc4nc5ccccc5[nH]4)CC3)cc[nH]c2c1` gave an IC50 (Plasmodium falciparum [1]) of 407 µM and an IC50 (Plasmodium falciparum [2]) of 535 µM.
`O=C(c1ccc(CNCCCN2CCN(CCC/N=c3\cc[nH]c4cc(Cl)ccc34)CC2)cc1)c1cccc(Cl)c1` showed an IC50 (Plasmodium falciparum [1]) of 26 µM, an IC50 (Plasmodium falciparum [2]) of 33 µM and an IC50 (Plasmodium falciparum [3]) of 1.6 µM. The IC50 (Plasmodium falciparum [4]) was 16 µM.
With `O=C(NCCCN1CCN(CCC/N=c2\cc[nH]c3cc(Cl)ccc23)CC1)C(c1cccc(Cl)c1)n1ccnc1` (stereo not drawn) the IC50 (Plasmodium falciparum [1]) was 221 µM, the IC50 (Plasmodium falciparum [2]) was 540 µM and the IC50 (Plasmodium falciparum [3]) was 40 µM. It also gave an IC50 (Plasmodium falciparum [4]) of 200 µM.
`Clc1ccc2/c(=N/CCCN3CCN(CCCNCC4N=CC=N4)CC3)cc[nH]c2c1` gave an IC50 (Plasmodium falciparum [1]) of 1610 µM and an IC50 (Plasmodium falciparum [2]) of 1440 µM.
`OC(c1ccc(CNCCCN2CCN(CCC/N=c3\cc[nH]c4cc(Cl)ccc34)CC2)cc1)c1cccc(Cl)c1` (stereo not drawn) showed an IC50 (Plasmodium falciparum [1]) of 145 µM, an IC50 (Plasmodium falciparum [2]) of 269 µM and an IC50 (Plasmodium falciparum [3]) of 28 µM. For the same compound, the IC50 (Plasmodium falciparum [4]) was 135 µM.
For `Clc1ccc2/c(=N/CCCN3CCN(CCCNCc4ccc(CN5CCCC5)cc4)CC3)cc[nH]c2c1`, the IC50 (Plasmodium falciparum [1]) was 260 µM and the IC50 (Plasmodium falciparum [2]) was 207 µM.
With `Clc1cccc(C(NCCCN2CCN(CCC/N=c3\cc[nH]c4cc(Cl)ccc34)CC2)c2ccc(CN3CCCC3)cc2)c1` (stereo not drawn) the IC50 (Plasmodium falciparum [1]) was 663 µM and the IC50 (Plasmodium falciparum [2]) was 495 µM.
For `CCN(CC)CCCC(C)NC1CC=Nc2cc(Cl)ccc21` (stereo not drawn), the IC50 (Plasmodium falciparum [1]) was 22 µM, the IC50 (Plasmodium falciparum [2]) was 280 µM and the IC50 (Plasmodium falciparum [3]) was 10 µM. The IC50 (Plasmodium falciparum [4]) was 260 µM.
`CS(=O)(=O)OC(c1ccc(CNCCCN2CCN(CCC/N=c3\cc[nH]c4cc(Cl)ccc34)CC2)cc1)c1cccc(Cl)c1` (stereo not drawn) was tested, and the IC50 (Plasmodium falciparum [1]) was 110 µM, the IC50 (Plasmodium falciparum [2]) was 98 µM and the IC50 (Plasmodium falciparum [3]) was 7.8 µM. The IC50 (Plasmodium falciparum [4]) was 447 µM.
